From ChEMBL document CHEMBL3792297, “Studies on phenothiazines: New microtubule-interacting compounds with phenothiazine A-ring as potent antineoplastic agents” (Bioorg Med Chem, 2016)

Legend:
[1] = Growth inhibition of human OVCAR3 cells after 48 hrs by SRB assay; assay type: functional; settings: OVCAR-3, 48 h
A498 = assay: Growth inhibition of human A498 cells after 48 hrs by SRB assay; assay type: functional; settings: A498, 48 h
[2] = Growth inhibition of human DU145 cells after 48 hrs by SRB assay; assay type: functional; settings: DU-145, 48 h
[3] = Growth inhibition of human SF295 cells after 48 hrs by SRB assay; assay type: functional; settings: SF-295, 48 h
Tubulin = Tubulin (Bos taurus, UniProt Q6B856+Q862L2+Q862F3); assay: Inhibition of bovine tubulin polymerization preincubated for 30 mins followed by GTP addition measured after 20 mins by spectrophotometric method; assay type: protein assay
Ovis aries = species: Ovis aries; assay: Inhibition of sheep brain tubulin polymerization at 100 uM by DAPI staining-based fluorimetric method
[4] = Inhibition of sheep brain tubulin polymerization by DAPI staining-based fluorimetric method; set-up: species or system Ovis aries
[5] = Inhibition of sheep brain tubulin polymerization preincubated for 1 hr measured after 30 mins by turbidimetric-spectrophotometric method; set-up: species or system Ovis aries

Compound | inhibition (Ovis aries) | IC50 [4] | other results
C=C(c1ccc(OC)c(O)c1)c1cc(OC)c(OC)c(OC)c1 | – | – | IC50 [5]: 1500 nM
COc1cc([C@@H]2c3cc4c(cc3C[C@H]3COC(=O)[C@@H]32)OCO4)cc(OC)c1OC [DESOXYPODOPHYLLOTOXIN] | 100% | 1800 nM | –
S=C(c1ccc2c(c1)Sc1ccccc1N2)c1c[nH]c2ccccc12 | 10% | – | –
O=C(c1ccc(F)cc1Cl)N1c2ccccc2Sc2ccccc21 | 44% | – | –

Second part, led by results:

inhibition (Ovis aries) | IC50 [4] | Compound | other results
99% | 3400 nM | COc1ccc(C(=O)c2cc(OC)c(OC)c(OC)c2)cc1O [PHENSTATIN] | GI50 [1]: 2.3 nM; GI50 (A498): 380 nM; GI50 [2]: 34 nM; GI50 [3]: 52 nM; IC50 (Tubulin): 1000 nM
48% | – | O=C(c1ccc(OC(F)(F)F)c(F)c1)N1c2ccccc2Sc2ccccc21 | –
14% | – | COc1ccc(C(=S)N2c3ccccc3Sc3ccccc32)cc1F | –
95% | 9500 nM | COc1ccc(C(=O)N2c3ccccc3Sc3ccccc32)cc1N | –
43% | – | Cc1cc(C(=O)N2c3ccccc3Sc3ccccc32)ccc1Br | –
